The values that follow come from article PMC6479639, “Structure-Based Virtual Screening and In Vitro Evaluation of New Trypanosoma cruzi Cruzain Inhibitors” (International Journal of Molecular Sciences, 2019).

For data set [1], the system named is T. cruzi INC-5 epimastigotes. The data set is described as follows: microbe, parasite or virus in culture. The note with it: for CC50: Trypanosoma cruzi, read-out: LC50 Epimastigotes T. cruzi INC-5. From the text:
(§1) For biological evaluation, the compounds Z2 (ZINC9873043), Z3 (ZINC9870651), Z5 (ZINC9715287), and Z6 (ZINC9861447) were selected and purchased from Molport https://www.molport.com (accessed on: 03 March 2018). For evaluation of trypanocidal activity of the selected compounds, two strains (NINOA and INC-5) in the epimastigote or trypomastigote stage of T. cruzi were used. Each strain was used to infect CD-1 mice (18–20 g) intraperitoneally with a concentration of 1 × 10^6 trypomastigotes/mL of blood. In the maximum peak of parasitemia, blood was obtained by cardiac puncture using heparin as an anticoagulant. The parasite concentration was then adjusted with isotonic saline (0.85% NaCl), and 90 μL of blood was used to achieve a concentration of 1 × 10^6 trypomastigotes/mL of blood. A 10 μL sample of each compound was evaluated in 96-well plates. The treatments performed consisted of a negative control, which contained dimethylsulfoxide (DMSO 2.5%) and the four compounds selected from virtual screening. […] Once the selected compounds were added after being homogenized with blood, the plates were incubated at 4 °C for 24 h. Once the incubation time had elapsed, the plates were kept at room temperature for 30 min, and then an aliquot of 5 μL was taken from each well, a fresh preparation was made, and the viable trypomastigotes were counted using the Pizzi method. A calculation of the number of viable trypomastigotes per mL of blood was carried out, and the survival percentages were obtained taking 100% of the negative control. Each test was done in triplicate. […] The LC50 values were determined using Probit statistical analysis of the dose-response, and the results were expressed as the mean of the standard deviation. The results were later converted to micromolar units.

In data set [2] the test system is T. cruzi INC-5 bloodstream trypomastigotes. The data set is described as follows: microbe, parasite or virus in culture. The note with it: Trypanosoma cruzi, 24 h, read-out: LC50 Bloodstream Trypomastigotes T. cruzi INC-5.
From the text: as §1

Another data set concerns epimastigote. On the set-up: method as in PMID 20961766. The note with it: read-out: IC50 replication of the epimastigote; cited from earlier work.
The conditions of data set [3]: activity previously reported for the compound; cited from earlier work.
The test system of data set [4] is T. cruzi NINOA bloodstream trypomastigotes. The experiment in a line: microbe, parasite or virus in culture. To be noted: Trypanosoma cruzi, 24 h, read-out: LC50 Bloodstream Trypomastigotes T. cruzi NINOA.
From the text: as §1

Data set [5] deals with cysteine proteases from epimastigotes of Trypanosoma cruzi strain INC-5. The data set is described as follows: Enzyme inhibition, protease extract, substrate Z-Phe-Arg-MCA. In kind it is biochemical. To be noted: protein extract of INC-5 epimastigotes, Z-Phe-Arg-MCA 5 µM, compounds 6.25–200 µM, pH 6.5. How it is done:
T. cruzi epimastigotes of the INC-5 strain were used to obtain a protein extract quantified by the Bradford method. Evaluation of the activity was carried out using the synthetic fluorogenic peptide Z-Phe-Arg-MCA as a substrate at 5 µM, with 1 μg of the enzyme extract and the corresponding compounds (Z2, Z3, Z5, and Z6) at different concentrations (6.25–200 µM) using a reaction buffer (50 mM Na2HPO4, 100 mM NaCl, 5 mM EDTA, 2.5 mM dithiothreitol; pH 6.5) at room temperature. As a negative control of enzyme inhibition, the substrate without compounds was evaluated with 2% DMSO (concentration corresponding to the highest dilution of the compounds). Hydrolysis of the substrate was monitored in a continuous assay for 1 h in the Spectramax M5 spectrofluorometer (Molecular Devices) at 380 nm excitation and 440 nm emission. The mean of fluorescence changes was normalized taking the control (without inhibitor) as 100%. The IC50 values were determined from semilog concentration-response plots using the nonlinear curve-fitting method.

Data set [6] concerns trypomastigotes of T. cruzi of the Tulahúen strain in mouse fibroblasts (L929). On the set-up: method as in Ferreira et al. (2010) and Pinto et al. (2017). The note with it: infected L929 fibroblasts, ref Ferreira et al. (2010) and Pinto et al. (2017); cited from earlier work.

As to `O=C(Cn1ccnc1[N+](=O)[O-])NCc1ccccc1` [Bzn, benznidazole, reference compound], the values for the CC50 in data set [1] and in data set [2] were 9.64 ± 4.2 µM and 225 ± 26.5 µM, respectively. Further, the IC50 (commonly the point on the concentration scale where inhibition reaches its midpoint) with epimastigote is 1.8 µM.

On to `CN1N=C(C(=O)N2CCc3c(c(C(=O)N4CCOCC4)nn3CCCc3ccccc3)C2)CCC1=O` [Z8], for which the “Activity Reported” value in data set [3] was “Inhibitor of cathepsin S”.

As to `COc1ccc([C@H]2CC(c3ccc4ccccc4c3)=NN2C(=O)Cn2cnc3ccsc3c2=O)cc1` [Z4], the “Activity Reported” value in data set [3] is “Amine oxidase inhibitor”.

As to `C[C@@H](Sc1nnc(C2CCCCC2)o1)C(=O)N1N=C(c2ccc(Cl)cc2)C[C@@H]1c1ccco1` [Z10], the “Activity Reported” value in data set [3] is recorded as “Amine oxidase inhibitor”.

With `Cc1ccc(NC(=O)CCC(=O)N2CCC(c3ccccc3)=N2)cc1S(=O)(=O)N1CCCCC1` [Z2], the “Activity Reported” value in data set [3] is on record as “Inhibitor of cannabinoid receptor type 2”. The CC50 in data set [1] is 239 ± 9.3 µM; in data set [2], above 250 µM; in data set [4] it was above 250 µM. In data set [5], this molecule registered an IC50 above 200 µM.

Turning to `Clc1ccc2[nH]c3c(NCCCN4CCOCC4)ncnc3c2c1` [S1, 8-chloro-N-(3-morpholinopropyl)-5H-pyrimido[5,4-b]-indol-4-amine, reference compound], the IC50 in data set [6] is 2.5 µM; in data set [5], above 200 µM. Moreover, the CC50 in data set [1] and in data set [2] was above 250 µM each time. Further, the “LC50 Epimastigotes T. cruzi INC-5” value in data set [1] (half maximal lytic concentration, epimastigotes, INC-5 strain) is recorded as “did not show an effect”.

`Cc1ccc(C2=NN(C(=O)CN3C(=O)N[C@](C)(c4ccc(F)c(F)c4)C3=O)[C@H](c3ccco3)C2)cc1` [Z6]: the “Activity Reported” value in data set [3] is reported as “Amine oxidase inhibitor”. Besides, the CC50 in data set [1], in data set [2] and in data set [4] was above 250 µM throughout. In addition, the IC50 in data set [5] was 50.4 µM.

For the molecule `C[C@H]1CCc2sc(-c3nnc(SCC(=O)N4N=C(c5ccco5)C[C@@H]4c4ccco4)o3)cc2C1` [Z3], the CC50 in data set [1], in data set [2] and in data set [4] was above 250 µM in each case. Moreover, in data set [5], the IC50 was found to be 84.4 µM.

In the case of `Cc1nnc(SCC(=O)N2N=C(c3ccc4ccccc4c3)C[C@@H]2c2ccccc2)n(N)c1=O` [Z5], the “Activity Reported” value in data set [3] is “Amine oxidase inhibitor”. The values for the CC50 in data set [1], in data set [2] and in data set [4] were 36.3 ± 9.9 µM, 185 ± 8.5 µM and 166 ± 14.5 µM, respectively. Besides, in data set [5], the IC50 turned out to be 56.2 µM.

As to `O=C(CCC(=O)N1CCC(c2ccccc2)=N1)N1CCN(S(=O)(=O)c2ccc3c(c2)CCC3)CC1` [Z7], in data set [3], the “Activity Reported” value is “Inhibitor of aldo keto reductases”.

Consider `C[C@H](/C=C/C(=O)C=O)NC(=O)[C@@H](Cc1ccccc1)NC(=O)OCc1ccccc1` [compound 186, reference compound], for which the “Activity Reported” value in data set [3] is reported as “Cz inhibitor”.
